From US20240158446A1, “CYCLIC COMPOUND HAVING SELECTIVE INHIBITORY ACTION ON KRAS OVER HRAS AND NRAS” (CHUGAI SEIYAKU KABUSHIKI KAISHA, priority 2021, published 2024)
Where a SMILES comes first, the peptide text is derived from it. Bridges are numbered along the chain shown (N, C = ends). [ ]: non-standard residue; d: D form. The star is where a group is joined. hPhe(3-Cl-4-CF3) = N[C@@H](CCc1ccc(C(F)(F)F)c(Cl)c1)C(=O)O; NPrPhe(4-CF3) = CCCN[C@@H](Cc1ccc(C(F)(F)F)cc1)C(=O)O; NMeGly(cPent) = CN[C@H](C(=O)O)C1CCCC1; Pro(4S-Me) = C[C@@H]1CN[C@H](C(=O)O)C1; NMeD = CN[C@@H](CC(=O)O)C(=O)O; NMeL = CN[C@@H](CC(C)C)C(=O)O; Morpholide = C1CN(*)CCO1; Ac5c = NC1(C(=O)O)CCCC1; Aze = O=C(O)[C@@H]1CCN1; Sar = CNCC(=O)O

Tests used:
[1] = target: GDP-bound NRAS wild-type protein (Homo sapiens, UniProt P01111); test: Binding to NRAS by surface plasmon resonance (SPR), Single Cycle Kinetics; details: SPR, GDP-bound NRAS wild-type protein vs GDP-bound KRAS wild-type protein
[2] = target: GDP-bound KRAS wild-type protein (Homo sapiens, UniProt P01116); test: Binding to KRAS by surface plasmon resonance (SPR), Single Cycle Kinetics; details: SPR Single Cycle Kinetics, GDP-bound KRAS wild-type protein, 1:1 binding model; read-out: KRAS KD
[3] = target: GDP-bound HRAS wild-type protein (Homo sapiens, UniProt P01112); test: Binding to HRAS by surface plasmon resonance (SPR), Single Cycle Kinetics; details: SPR, GDP-bound HRAS wild-type protein vs GDP-bound KRAS wild-type protein
GDP-bound HRAS wild-type protein, sequence (P01112 whole entry): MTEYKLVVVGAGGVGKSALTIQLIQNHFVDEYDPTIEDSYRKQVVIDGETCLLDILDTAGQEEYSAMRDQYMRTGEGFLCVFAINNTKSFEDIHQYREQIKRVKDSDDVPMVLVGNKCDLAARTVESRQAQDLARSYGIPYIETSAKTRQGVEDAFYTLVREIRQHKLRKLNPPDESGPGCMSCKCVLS

GDP-bound NRAS wild-type protein, sequence (P01111 whole entry): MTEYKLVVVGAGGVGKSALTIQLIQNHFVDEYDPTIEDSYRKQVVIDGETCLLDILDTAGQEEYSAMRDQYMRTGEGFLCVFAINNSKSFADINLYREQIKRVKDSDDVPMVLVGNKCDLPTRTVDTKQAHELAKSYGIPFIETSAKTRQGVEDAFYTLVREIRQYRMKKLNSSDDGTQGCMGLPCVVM
GDP-bound KRAS wild-type protein, sequence (P01116 whole entry): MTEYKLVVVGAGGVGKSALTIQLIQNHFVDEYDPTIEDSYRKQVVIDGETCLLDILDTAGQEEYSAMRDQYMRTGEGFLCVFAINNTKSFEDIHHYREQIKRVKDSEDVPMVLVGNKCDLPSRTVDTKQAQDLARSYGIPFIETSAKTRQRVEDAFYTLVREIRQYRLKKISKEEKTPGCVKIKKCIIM

Kd [2] [nM]	Structure (SMILES)	NRAS/KRAS (ratio of KD value with respect to NRAS to KD value with respect to KRAS) [1]	HRAS/KRAS (ratio of KD value with respect to HRAS to KD value with respect to KRAS) [3]
0.93	CC[C@H](C)[C@@H]1NC(=O)[C@H](C)N(C)C(=O)C[C@@H](C(=O)N2CCOCC2)N(C)C(=O)[C@H](C2CCCC2)N(C)C(=O)C2(CCC2)NC(=O)[C@@H]2CC(F)(F)CN2C(=O)[C@H](CCc2cc(F)c(C(F)(F)F)c(F)c2)NC(=O)CN(C)C(=O)[C@H](Cc2ccc(C(F)(F)F)cc2)N2CCCCC[C@@H](C2=O)N(C)C(=O)CN(C)C1=O [PP0471]	B (a compound having 3 or more and less than 10 is denoted as B)	B (a compound having 3 or more and less than 10 is denoted as B)
0.77	CC[C@H](C)[C@@H]1NC(=O)[C@H](C)N(C)C(=O)C[C@@H](C(=O)N(C)C)N(C)C(=O)[C@H](C2CCCC2)N(C)C(=O)C2(CCCC2)NC(=O)[C@@H]2CC(F)(F)CN2C(=O)[C@H](CCc2cc(F)c(C(F)(F)F)c(F)c2)NC(=O)CN(C)C(=O)[C@H](Cc2ccc(C(F)(F)F)cc2)N2CCCCC[C@@H](C2=O)N(C)C(=O)CN(C)C1=O [PP0472]	B (a compound having 3 or more and less than 10 is denoted as B)	B (a compound having 3 or more and less than 10 is denoted as B)
0.56	CC[C@H](C)[C@@H]1NC(=O)[C@H](C)N(C)C(=O)C[C@@H](C(=O)N(C)C)N(C)C(=O)[C@H](C2CCCC2)N(C)C(=O)C2(CCC2)NC(=O)[C@@H]2CC(F)(F)CN2C(=O)[C@H](CCc2cc(F)c(C(F)(F)F)c(F)c2)NC(=O)CN(C)C(=O)[C@H](Cc2ccc(C(F)(F)F)cc2)N2CCCCC[C@@H](C2=O)N(C)C(=O)CN(C)C1=O [PP0473]	C (A compound having a KD ratio of 0.1 or more and less than 3 is denoted as C)	C (A compound having a KD ratio of 0.1 or more and less than 3 is denoted as C)
0.63	CCO[C@@H]1C[C@H]2C(=O)NC3(CCC3)C(=O)N(C)[C@@H](C3CCCC3)C(=O)N(C)[C@H](C(=O)N3CCOCC3)CC(=O)N(C)[C@@H](C)C(=O)N[C@@H]([C@@H](C)CC)C(=O)N(C)CC(=O)N(C)[C@H]3CCCCCN(C3=O)[C@@H](Cc3ccc(C(F)(F)F)cc3)C(=O)N(C)CC(=O)N[C@@H](CCc3cc(F)c(C(F)(F)F)c(F)c3)C(=O)N2C1 [PP0474]	B (a compound having 3 or more and less than 10 is denoted as B)	B (a compound having 3 or more and less than 10 is denoted as B)
0.46	CCO[C@@H]1C[C@H]2C(=O)NC3(CCCC3)C(=O)N(C)[C@@H](C3CCCC3)C(=O)N(C)[C@H](C(=O)N(C)C)CC(=O)N(C)[C@@H](C)C(=O)N[C@@H]([C@@H](C)CC)C(=O)N(C)CC(=O)N(C)[C@H]3CCCCCN(C3=O)[C@@H](Cc3ccc(C(F)(F)F)cc3)C(=O)N(C)CC(=O)N[C@@H](CCc3cc(F)c(C(F)(F)F)c(F)c3)C(=O)N2C1 [PP0475]	B (a compound having 3 or more and less than 10 is denoted as B)	B (a compound having 3 or more and less than 10 is denoted as B)

Second part, the compound before the results:

Structure (SMILES)	Kd [2] [nM]	NRAS/KRAS (ratio of KD value with respect to NRAS to KD value with respect to KRAS) [1]	HRAS/KRAS (ratio of KD value with respect to HRAS to KD value with respect to KRAS) [3]
CCCN1C(=O)[C@@H]2CCN2C(=O)CN(C)C(=O)[C@H]([C@@H](C)CC)NC(=O)[C@H](CC(C)C)N(C)C(=O)C[C@@H](C(=O)N2CCOCC2)N(C)C(=O)[C@H](C2CCCC2)N(C)C(=O)C2(CCCC2)NC(=O)[C@@H]2C[C@H](C)CN2C(=O)[C@H](CCc2ccc(C(F)(F)F)c(Cl)c2)NC(=O)CN(C)C(=O)[C@@H]1Cc1ccc(C(F)(F)F)cc1 [PP0457] ([NMeL]I[Sar][Aze][NPrPhe(4-CF3)][Sar][hPhe(3-Cl-4-CF3)][Pro(4S-Me)][Ac5c][NMeGly(cPent)][NMeD]-Morpholide; lactam N-11)	0.083	C (A compound having a KD ratio of 0.1 or more and less than 3 is denoted as C)	B (a compound having 3 or more and less than 10 is denoted as B)
CC[C@H](C)[C@@H]1NC(=O)[C@H](CC(C)C)N(C)C(=O)C[C@@H](C(=O)N2CCOCC2)N(C)C(=O)[C@H](C2CCCC2)N(C)C(=O)C2(CCCC2)NC(=O)[C@@H]2CCCN2C(=O)[C@H](CCc2ccc(C(F)(F)F)c(Cl)c2)NC(=O)CN(C)C(=O)[C@H](Cc2ccc(C)cc2)N2CC/C=C\C[C@@H](C2=O)N(C)C(=O)CN(C)C1=O [PP0461]	0.49	A (a compound having 10 or more and less than 20 is denoted as A)	A (a compound having 10 or more and less than 20 is denoted as A)
CC[C@H](C)[C@@H]1NC(=O)[C@H](CC(C)C)N(C)C(=O)C[C@@H](C(=O)N2CCOCC2)N(C)C(=O)[C@H](C2CCCC2)N(C)C(=O)C2(CCCC2)NC(=O)[C@@H]2CCCN2C(=O)[C@H](CCc2ccc(C(F)(F)F)c(Cl)c2)NC(=O)CN(C)C(=O)[C@H](Cc2ccc(C(F)(F)F)cc2)N2CC=CC[C@@H](C2=O)N(C)C(=O)CN(C)C1=O [PP0462]	0.32	C (A compound having a KD ratio of 0.1 or more and less than 3 is denoted as C)	C (A compound having a KD ratio of 0.1 or more and less than 3 is denoted as C)
CC[C@H](C)[C@@H]1NC(=O)[C@H](CC(C)C)N(C)C(=O)C[C@@H](C(=O)N2CCOCC2)N(C)C(=O)[C@H](C2CCCC2)N(C)C(=O)C2(CCCC2)NC(=O)[C@@H]2CCCN2C(=O)[C@H](CCc2ccc(C(F)(F)F)c(Cl)c2)NC(=O)CN(C)C(=O)[C@H](Cc2ccc(C(F)(F)F)cc2)N2CC/C=C\C[C@@H](C2=O)N(C)C(=O)CN(C)C1=O [PP0463]	0.54	A (a compound having 10 or more and less than 20 is denoted as A)	A (a compound having 10 or more and less than 20 is denoted as A)
CC[C@H](C)[C@@H]1NC(=O)[C@H](CC(C)C)N(C)C(=O)C[C@@H](C(=O)N2CCOCC2)N(C)C(=O)[C@H](C2CCCC2)N(C)C(=O)C2(CCC2)NC(=O)[C@@H]2CC(F)(F)CN2C(=O)[C@H](CCc2cc(F)c(C(F)(F)F)c(F)c2)NC(=O)CN(C)C(=O)[C@H](Cc2ccc(C(F)(F)F)cc2)N2CCCCC[C@@H](C2=O)N(C)C(=O)CN(C)C1=O [PP0464]	0.92	B (a compound having 3 or more and less than 10 is denoted as B)	B (a compound having 3 or more and less than 10 is denoted as B)
CC[C@H](C)[C@@H]1NC(=O)[C@H](CC(C)C)N(C)C(=O)C[C@@H](C(=O)N(C)C)N(C)C(=O)[C@H](C2CCCC2)N(C)C(=O)C2(CCCC2)NC(=O)[C@@H]2CC(F)(F)CN2C(=O)[C@H](CCc2cc(F)c(C(F)(F)F)c(F)c2)NC(=O)CN(C)C(=O)[C@H](Cc2ccc(C(F)(F)F)cc2)N2CCCCC[C@@H](C2=O)N(C)C(=O)CN(C)C1=O [PP0465]	0.51	B (a compound having 3 or more and less than 10 is denoted as B)	B (a compound having 3 or more and less than 10 is denoted as B)
CC[C@H](C)[C@@H]1NC(=O)[C@H](CC(C)C)N(C)C(=O)C[C@@H](C(=O)N(C)C)N(C)C(=O)[C@H](C2CCCC2)N(C)C(=O)C2(CCC2)NC(=O)[C@@H]2CC(F)(F)CN2C(=O)[C@H](CCc2cc(F)c(C(F)(F)F)c(F)c2)NC(=O)CN(C)C(=O)[C@H](Cc2ccc(C(F)(F)F)cc2)N2CCCCC[C@@H](C2=O)N(C)C(=O)CN(C)C1=O [PP0466]	0.2	B (a compound having 3 or more and less than 10 is denoted as B)	B (a compound having 3 or more and less than 10 is denoted as B)
CCO[C@@H]1C[C@H]2C(=O)NC3(CCC3)C(=O)N(C)[C@@H](C3CCCC3)C(=O)N(C)[C@H](C(=O)N3CCOCC3)CC(=O)N(C)[C@@H](CC(C)C)C(=O)N[C@@H]([C@@H](C)CC)C(=O)N(C)CC(=O)N(C)[C@H]3CCCCCN(C3=O)[C@@H](Cc3ccc(C(F)(F)F)cc3)C(=O)N(C)CC(=O)N[C@@H](CCc3cc(F)c(C(F)(F)F)c(F)c3)C(=O)N2C1 [PP0467]	0.59	B (a compound having 3 or more and less than 10 is denoted as B)	B (a compound having 3 or more and less than 10 is denoted as B)
CCO[C@@H]1C[C@H]2C(=O)NC3(CCCC3)C(=O)N(C)[C@@H](C3CCCC3)C(=O)N(C)[C@H](C(=O)N(C)C)CC(=O)N(C)[C@@H](CC(C)C)C(=O)N[C@@H]([C@@H](C)CC)C(=O)N(C)CC(=O)N(C)[C@H]3CCCCCN(C3=O)[C@@H](Cc3ccc(C(F)(F)F)cc3)C(=O)N(C)CC(=O)N[C@@H](CCc3cc(F)c(C(F)(F)F)c(F)c3)C(=O)N2C1 [PP0468]	0.8	B (a compound having 3 or more and less than 10 is denoted as B)	B (a compound having 3 or more and less than 10 is denoted as B)
CC[C@H](C)[C@@H]1NC(=O)[C@H](C)N(C)C(=O)C[C@@H](C(=O)N(C)C)N(C)C(=O)[C@H](C2CCCC2)N(C)C(=O)C2(CCC2)NC(=O)[C@@H]2CCCN2C(=O)[C@H](CCc2cc(F)c(C(F)(F)F)c(F)c2)NC(=O)CN(C)C(=O)[C@H](Cc2ccc(C(F)(F)F)cc2)N2CCCCC[C@@H](C2=O)N(C)C(=O)CN(C)C1=O [PP0470]	0.55	B (a compound having 3 or more and less than 10 is denoted as B)	B (a compound having 3 or more and less than 10 is denoted as B)
